ChEMBL document CHEMBL1201862, “PubChem BioAssay data set” (2004)
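All cell lines were grown in 96-well plates and treated with compound for 48 hours. The concentration for 50% growth inhibition is given as GI50.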 Calls of active or inactive are those of the source. No stated cut-off is given here; in the data, active = GI50 up to about 1.1 µM and inactive = higher. Residues, ends and D or L forms follow the SMILES beside them.

What was measured:
Assay in all cases: NCI anticancer screen, dose series, 48 h
[1] = test system: KM12
[2] = test system: ACHN
[3] = test system: SW-620
[4] = test system: M14
[5] = test system: RPMI-8226
[6] = test system: SN12C
[7] = test system: A549
[8] = test system: RXF 393
[9] = test system: NCI-H460
[10] = test system: HCT-116
[11] = test system: OVCAR-3
[12] = test system: A498
[13] = test system: PC-3
[14] = test system: OVCAR-4
[15] = test system: SK-MEL-2
[16] = test system: SF-295
[17] = test system: NCI-H226
[18] = test system: HL-60
[19] = test system: MDA-MB-435
[20] = test system: NCI-H23

SMILES | GI50 [1] | GI50 [2] | GI50 [3] | GI50 [4] | GI50 [5] | GI50 [6] | GI50 [7] | GI50 [8] | GI50 [9] | GI50 [10] | GI50 [11] | GI50 [12] | GI50 [13] | GI50 [14] | GI50 [15] | GI50 [16] | GI50 [17] | GI50 [18] | GI50 [19] | GI50 [20]
Cn1c2ccccc2c2ccc3c(c21)C(=O)c1ccc2c4ccccc4n(C)c2c1C3=O | > 100 µM (inactive) | > 100 µM (inactive) | > 100 µM (inactive) | > 100 µM (inactive) | > 100 µM (inactive) | > 100 µM (inactive) | > 100 µM (inactive) | > 100 µM (inactive) | > 100 µM (inactive) | > 96.2 µM (inactive) | > 65 µM (inactive) | > 100 µM (inactive) | > 100 µM (inactive) | > 65.5 µM (inactive) | > 100 µM (inactive) | > 100 µM (inactive) | > 100 µM (inactive) | > 100 µM (inactive) | > 100 µM (inactive) | > 100 µM (inactive)
CC1(C)CCC(=O)NC1CC(=O)CC1NC(=O)CCC1(C)C (stereo not given) | > 100 µM (inactive) | > 100 µM (inactive) | > 100 µM (inactive) | > 100 µM (inactive) | > 100 µM (inactive) | > 100 µM (inactive) | > 100 µM (inactive) | > 100 µM (inactive) | > 100 µM (inactive) | > 100 µM (inactive) | > 100 µM (inactive) | > 100 µM (inactive) | > 100 µM (inactive) | > 100 µM (inactive) | > 100 µM (inactive) | > 100 µM (inactive) | > 100 µM (inactive) | 32.7 µM (inactive) | > 100 µM (inactive) | > 100 µM (inactive)
COCCOCCOC1=CC(=O)c2c(O)ccc(O)c2C1=O | 1.83 µM (inactive) | 1.61 µM (inactive) | 0.571 µM (active) | 0.971 µM (active) | 1.37 µM (inactive) | 1.96 µM (inactive) | 1.75 µM (inactive) | 2.07 µM (inactive) | 1.91 µM (inactive) | 0.307 µM (active) | 1.44 µM (inactive) | 2.67 µM (inactive) | 2.48 µM (inactive) | 1.73 µM (inactive) | 1.84 µM (inactive) | 1.82 µM (inactive) | 2.3 µM (inactive) | 0.505 µM (active) | 0.0278 µM (active) | 1.69 µM (inactive)
CN1CCN(c2ccc([N+](=O)[O-])c3no[n+]([O-])c23)CC1 | 0.098 µM (active) | 0.0395 µM (active) | 0.0631 µM (active) | 0.153 µM (active) | 0.0628 µM (active) | 0.106 µM (active) | 0.207 µM (active) | 0.122 µM (active) | 0.0334 µM (active) | 0.12 µM (active) | 0.396 µM (active) | 1.04 µM (active) | 0.557 µM (active) | 0.689 µM (active) | 1.34 µM (inactive) | 0.0424 µM (active) | 0.604 µM (active) | 0.0366 µM (active) | 1.05 µM (active) | < 0.0359 µM (active)
C=C(Cl)/C(=C\Cl)CCC(Cl)C(C)C (stereo not given) | > 100 µM (inactive) | > 100 µM (inactive) | 74.3 µM (inactive) | 84.9 µM (inactive) | 65.2 µM (inactive) | > 100 µM (inactive) | > 100 µM (inactive) | > 100 µM (inactive) | > 100 µM (inactive) | > 100 µM (inactive) | > 100 µM (inactive) | > 100 µM (inactive) | > 100 µM (inactive) | > 100 µM (inactive) | > 100 µM (inactive) | > 100 µM (inactive) | > 100 µM (inactive) | 56.2 µM (inactive) | > 100 µM (inactive) | > 100 µM (inactive)
COc1ccc(C2c3cc4c(cc3OC(N3CCOCC3)C2C)OCO4)c(OC)c1 (stereo not given) | 4.94 µM (inactive) | 9.48 µM (inactive) | 3.72 µM (inactive) | 3.96 µM (inactive) | 3.15 µM (inactive) | 10.7 µM (inactive) | 7.43 µM (inactive) | 2.94 µM (inactive) | 5.12 µM (inactive) | 3.77 µM (inactive) | 3.48 µM (inactive) | 4.68 µM (inactive) | 7.6 µM (inactive) | 10 µM (inactive) | 4.95 µM (inactive) | 3.48 µM (inactive) | 3.72 µM (inactive) | 2.7 µM (inactive) | 2.14 µM (inactive) | 11.9 µM (inactive)
COc1cc(NCc2ccc3n2-c2ccccc2OC3)cc(OC)c1OC | 40.7 µM (inactive) | 30.1 µM (inactive) | 35.6 µM (inactive) | 31 µM (inactive) | 7.89 µM (inactive) | 17.5 µM (inactive) | 17.6 µM (inactive) | 24.6 µM (inactive) | 30.1 µM (inactive) | 27.8 µM (inactive) | 28.6 µM (inactive) | 13.5 µM (inactive) | 22.8 µM (inactive) | 16.1 µM (inactive) | 20 µM (inactive) | 23.8 µM (inactive) | 28.8 µM (inactive) | 17.7 µM (inactive) | 14 µM (inactive) | 35.2 µM (inactive)
CC(=O)NC(CO)C(=O)NC(Cc1ccc(O)cc1)C(=O)NCC(N)=O (stereo not drawn) (Ac-Ser-Tyr-Gly-NH2; configuration not given here) | > 100 µM (inactive) | > 100 µM (inactive) | > 100 µM (inactive) | > 100 µM (inactive) | > 100 µM (inactive) | > 100 µM (inactive) | > 100 µM (inactive) | > 100 µM (inactive) | > 100 µM (inactive) | > 100 µM (inactive) | > 100 µM (inactive) | > 100 µM (inactive) | > 100 µM (inactive) | > 100 µM (inactive) | > 100 µM (inactive) | > 100 µM (inactive) | > 100 µM (inactive) | > 100 µM (inactive) | > 100 µM (inactive) | > 100 µM (inactive)
CC1(CNCc2ccccc2)CC(CCc2ccccc2)N(C(=O)c2ccc([N+](=O)[O-])cc2)C1Cc1ccc(O)cc1 (stereo not given) | 15.6 µM (inactive) | 12 µM (inactive) | 21.5 µM (inactive) | 13.7 µM (inactive) | 17.3 µM (inactive) | 6.76 µM (inactive) | 10.4 µM (inactive) | 5.04 µM (inactive) | 14 µM (inactive) | 10.4 µM (inactive) | 12.1 µM (inactive) | 12.9 µM (inactive) | 10.7 µM (inactive) | 9.91 µM (inactive) | 13.6 µM (inactive) | 11.2 µM (inactive) | 9.93 µM (inactive) | 11.3 µM (inactive) | 14.2 µM (inactive) | 10.3 µM (inactive)
Cc1ccc(C(=O)OC[C@H]2CC[C@@H](n3cc(N(C)C4CCCCC4)c(=O)[nH]c3=O)O2)cc1 | 19.6 µM (inactive) | 26.6 µM (inactive) | 40 µM (inactive) | 11 µM (inactive) | 31.4 µM (inactive) | 20.7 µM (inactive) | 28.7 µM (inactive) | 16.7 µM (inactive) | 32.7 µM (inactive) | 16.7 µM (inactive) | 21.6 µM (inactive) | 19.5 µM (inactive) | 29.4 µM (inactive) | 30.9 µM (inactive) | 85.7 µM (inactive) | 15.7 µM (inactive) | 24.4 µM (inactive) | 27.9 µM (inactive) | 65.2 µM (inactive) | 43.9 µM (inactive)
CC(=O)OC(C)C1C2=C(C(=O)CC1(C)O)C(=O)c1c(ccc(-c3ccc4c(c3O)C(=O)C3=C(C4=O)C(C(C)OC(C)=O)C(C)(O)CC3=O)c1O)C2=O (stereo not given) | 3.19 µM (inactive) | 1.73 µM (inactive) | 0.667 µM (active) | 2.11 µM (inactive) | 0.483 µM (active) | 2.82 µM (inactive) | 5.47 µM (inactive) | 1.74 µM (inactive) | 6.58 µM (inactive) | 0.521 µM (active) | 2.2 µM (inactive) | 2.86 µM (inactive) | 3.1 µM (inactive) | 2.24 µM (inactive) | 1.75 µM (inactive) | 11.6 µM (inactive) | 9.33 µM (inactive) | 0.398 µM (active) | 2.14 µM (inactive) | 1.47 µM (inactive)
COc1cc(/C=C2\C(=O)N(c3ccc(NC(C)=O)cc3)C(c3ccccc3)S2(=O)=O)cc(OC)c1OC (stereo not given) | > 100 µM (inactive) | > 100 µM (inactive) | > 100 µM (inactive) | > 100 µM (inactive) | 60.8 µM (inactive) | > 100 µM (inactive) | > 100 µM (inactive) | > 100 µM (inactive) | > 100 µM (inactive) | > 100 µM (inactive) | 93.3 µM (inactive) | > 100 µM (inactive) | 48.4 µM (inactive) | 60.8 µM (inactive) | > 100 µM (inactive) | 78 µM (inactive) | > 100 µM (inactive) | 18.3 µM (inactive) | 92.9 µM (inactive) | > 100 µM (inactive)
COc1ccc(-c2cn3c(n2)sc2cc(C)ccc23)cc1 | 5.05 µM (inactive) | 28.4 µM (inactive) | 25.8 µM (inactive) | 26.1 µM (inactive) | 3.93 µM (inactive) | 23.7 µM (inactive) | 24.4 µM (inactive) | 16.6 µM (inactive) | 20.7 µM (inactive) | 13.2 µM (inactive) | 7.14 µM (inactive) | 21.3 µM (inactive) | 14.8 µM (inactive) | 10.9 µM (inactive) | 14.3 µM (inactive) | 16.8 µM (inactive) | 15.2 µM (inactive) | 3.45 µM (inactive) | 5.28 µM (inactive) | 9.29 µM (inactive)
Cc1ccc(Cl)c2[nH]c(-c3ccccc3)cc(=O)c12 | 21.4 µM (inactive) | 30.3 µM (inactive) | 39.2 µM (inactive) | 39.8 µM (inactive) | 36.1 µM (inactive) | 46.5 µM (inactive) | 24.1 µM (inactive) | 44 µM (inactive) | 37 µM (inactive) | 29.2 µM (inactive) | 36.1 µM (inactive) | 25.6 µM (inactive) | 23.3 µM (inactive) | 37.8 µM (inactive) | 65.6 µM (inactive) | 63.5 µM (inactive) | 31.3 µM (inactive) | 23 µM (inactive) | 21.1 µM (inactive) | 46.7 µM (inactive)
